Measurements published in patent US4052514A, “Trihalosubstituted biphenylyl propionic acids” (The Boots Company Limited, priority 1971, dated 1977).

What follows are compounds tested on adjuvant arthritis (assay: rat adjuvant arthritis test (chronic; killed human tubercle bacilli, compounds given daily by mouth for 21 days)). Details: daily by mouth for 21 days, reference 2-(2-fluoro-4-biphenylyl)propionic acid = 1.
Type: in vivo
Experimental: The best method of indicating long acting anti-inflammatory activity of the compounds is by means of a test in which compounds are administered chronically e.g. the rat adjuvant arthritis test. […] The adjuvant arthritis test conducted on the rat is, however a chronic test and is believed to give a good indication of the effectiveness of the compounds for the treatment of chronic conditions in humans. The adjuvant arthritis test is described by Newbould, B. B., in Br. J. Pharmac. Chemother., 1963, 21, 127. In the test arthritis is produced by injecting intradermally into the tail 0.1 ml. of a suspension of killed human tubercle bacilli (6 mg./ml.) in liquid paraffin BP. A polyarthritis develops over the next 3 weeks in untreated controls. The compounds under test (vehicle only for control animals) are given daily by mouth from the day the adjuvant is injected for 21 days. On day 21 the degree of arthritis is assessed on each hind foot. The degree of inhibition produced by a compound is estimated by comparison of the total arthritic scores with those found in the controls.
In the following Table are given the results in the adjuvant arthritis test for the four preferred compounds of the invention and 2-(2-fluoro-4-biphenylyl)propionic acid, the latter compound being used as a standard of reference in the adjuvant arthritis test.
As with the propionic acids of the invention the half-life of the compounds of the invention in the blood of the subject to which they are administered is a good indication of their duration of activity. The half-life may ve measured by giving oral doses of the compounds and determining levels in the plasma at various times thereafer, as previously described. As with the propionic acids of the invention one of the best methods of indicating long acting anti-inflammatory activity of the compounds is by means of a test in which compounds are administered chronically e.g. the rat adjuvant arthritis test.
With `CC(C(=O)O)c1ccc(-c2ccc(F)cc2Cl)c(F)c1` (stereo not drawn) [2-(2'-chloro-2,4'-difluoro-4-biphenylyl)propionic acid] the “ADJUVANT ARTHRITIS (activity; 2-(2-fluoro-4-biphenylyl)propionic acid used as standard of reference)” value was over 3. `CC(C(=O)O)c1ccc(-c2ccc(F)cc2F)c(F)c1` (stereo not drawn) [2-(2,2',4'-trifluoro-4-biphenylyl)propionic acid] was tested, and the “ADJUVANT ARTHRITIS (activity; 2-(2-fluoro-4-biphenylyl)propionic acid used as standard of reference)” value was over 10. For `CC(C(=O)O)c1ccc(-c2ccc(F)cc2F)c(Cl)c1` (stereo not drawn) [2-(2-chloro-2',4'-difluoro-4-biphenylyl)propionic acid], the “ADJUVANT ARTHRITIS (activity; 2-(2-fluoro-4-biphenylyl)propionic acid used as standard of reference)” value was over 10. `CC(C(=O)O)c1ccc(-c2ccccc2)c(F)c1` (stereo not drawn) [2-(2-fluoro-4-biphenylyl)propionic acid, reference compound] was tested, and the “ADJUVANT ARTHRITIS (activity; 2-(2-fluoro-4-biphenylyl)propionic acid used as standard of reference)” value was 1. `CC(C(=O)O)c1ccc(-c2ccc(Cl)cc2F)c(F)c1` (stereo not drawn) [2-(4'-chloro-2,2'-difluoro-4-biphenylyl)propionic acid] was tested, and the “ADJUVANT ARTHRITIS (activity; 2-(2-fluoro-4-biphenylyl)propionic acid used as standard of reference)” value was over 3.

Same assay, conditions: standard of reference 2-fluoro-4-biphenylylacetic acid
In the case of `O=C(O)Cc1ccc(-c2ccc(F)cc2F)c(F)c1` [2,2', 4'-trifluoro-4-biphenylacetic acid, 2,2',4'-trifluoro-4-biphenylylacetic acid], the “times as active as 2-fluoro-4-biphenylylacetic acid in adjuvant arthritis test” value is reported as “more than 30 times”.
